Laboratory results published in patent US8361965B2, “Recombinant chimeric protein of neutrophil inhibitory factor and hirugen, and pharmaceutical composition thereof” (Lunan Pharmaceutical Group Corporation, priority 2008, dated 2013).

What was measured:
blood coagulation system [1] = test: effects on blood coagulation system of New Zealand rabbits in vitro (APTT, PT, TT); type: biochemical, New Zealand rabbit; parameters: PT: unit not given beside the values; APTT / TT: unit not given here
Protocol: Medicaments were diluted to the following concentrations for use: TNHH: 3.0 mg/ml; 1.0 mg/ml; 333 μg/ml; bivalrudin: 600 μg/ml; 200 μg/ml; 67 μg/ml; Hirudin: 660 μg/ml; 220 μg/ml; 73 μg/ml.
The blood was sampled from six New Zealand rabbits (10×1.8 ml for each one) from marginal ear vein and added into 10 anticoagulation tubes, respectively. 3.2% sodium citrate (9:1) was added for anticoagulation.
20 μl anticoagulated blood was taken from each tube, followed by the addition of 20 μl above diluted medicaments for each tube. 20 μl physiological saline was added into the control tube. Samples were mixed thoroughly and centrifuged at 3000 rpm/min for 3 min, and plasma was send to Department of Clinical Laboratory, Southwest Hospital for determining blood coagulation indexes (APTT, TT and PT) with a full automatic coagulation analyzer and the difference before and after administration was obtained by comparison.

blood coagulation system [2] = test: effects on blood coagulation system of New Zealand rabbits in vivo (APTT, PT, TT); parameters: species or system New Zealand rabbit; PT: unit not given beside the values; APTT / TT: unit not given here
Protocol: Medicaments were administrated via intravenous injection from marginal ear vein, and 1.8 ml blood was harvested from marginal ear veins at the time of before administration (0 min), and 10 min, 30 min, 60 min, 120 min and 240 min after administration, respectively (the time for injecting is 2 min). 3.2% sodium citrate (9:1) was added for anticoagulation and then mixed and centrifuged at 3000 rpm/min for 3 min. The plasma was send to Department of Clinical Laboratory, Southwest Hospital for determining blood coagulation indexes (APTT, TT and PT) with a full automatic coagulation analyzer and the difference before and after administration was obtained by comparison.

leukocyte adhesion = test: anti-leukocyte adhesion activity, in vitro comparative analysis; type: cell-based; settings: in vitro
rabbit whole blood = test: in vitro whole blood anticoagulation assay; parameters: species or system white rabbit; settings: 0.2 ml heparin sodium 1 mg/ml + 1.0 ml rabbit blood; room temperature 15 min
Protocol: TNHH was diluted to 4 mg/ml, 2 mg/ml, 1 mg/ml, 0.5 mg/ml respectively with phosphate buffer solution (10 mmol/L PB, 0.15 mol/L NaCl, pH7.4). Heparin sodium was prepared to 1 mg/ml with the same buffer solution.
Venous blood was taken from marginal ear vein of the rabbit, and rapidly added into 0#-5# tubes. 0.2 ml of the diluted TNHH samples with different concentrations was added into the 1#-4# tubes, respectively. 0.2 ml phosphate buffer solution was added into the 0# tube, which was used as a negative control. 0.2 ml heparin sodium (1 mg/ml) was added into the 5# tube, which was used as a positive control. The reagents were mixed rapidly and stored at room temperature for 15 min for observing the results.

[3] = test system: platelet aggregation induced by human thrombin; test: antiplatelet aggregation assay (rabbits dosed i.v., thrombin-induced aggregation of PRP); type: in vivo, Japanese Giant Ear White Rabbits
Protocol: Platelet aggregation rate was determined by puncture of the central artery of the ear before administration, and then rabbits were randomly divided into 5 groups (4 in each group) based on the platelet aggregation rate and body weight: (1) negative control group (5.12 mg mannitol/kg), (2) high dose TNHH group (4.0 mg/kg), (3) middle dose TNHH group (2.0 mg/kg), (4) low dose TNHH group (1.0 mg/kg), and (5) positive control group (0.1 mg recombinant hirudin/kg). The rabbits in each group were administered at the dose respectively via intravenous injection from the marginal ear vein. Blood samples were collected at the time of 15 min after administration (timed by stopwatch) by puncture of the central artery of the ear to determine the platelet aggregation rate. The method of platelet aggregation rate determination was described as follows: the blood samples were collected by puncture of the central artery of the ear using silicified syringe. 3.8% anticoagulant sodium citrate solution (blood: anticoagulant=9:1) was used. The sample was centrifuged at 200×g for 8 min, and the supernatant obtained was platelet-rich plasma (PRP); then the remaining part was centrifuged again at 2200×g for 10 min, and the supernatant obtained was platelet-poor plasma (PPP). The platelet in PRP was counted as approximate 4.0×10^5/mm^3. According to Born's turbidimetry, a turbidimetric tube with 200 μl PRP and a small magnetic bar was placed in a platelet aggregation instrument and incubated at 37 for 1 min. After calibrating with PPP, the platelet was induced to aggregate by adding inductive human thrombin (0.76 IU/ml) under stirring. The effect of medicaments on the aggregation of platelet was analyzed using the aggregation curve and the maximum aggregation rate obtained from the instrument. The maximum aggregation rate was calculated according to the formula below: […]

[4] = bivalrudin 0.67 μg/ml in rabbit blood
[5] = bivalrudin 2.00 μg/ml in rabbit blood
[6] = bivalrudin 6.00 μg/ml in rabbit blood
[7] = Bivalrudin 1.50 mg/kg i.v., 0 min (before administration)
[8] = Bivalrudin 1.50 mg/kg i.v., 10 min
[9] = Bivalrudin 1.50 mg/kg i.v., 30 min
[10] = Bivalrudin 1.50 mg/kg i.v., 60 min
[11] = Bivalrudin 1.50 mg/kg i.v., 120 min
[12] = Bivalrudin 1.50 mg/kg i.v., 240 min
[13] = hirudin 0.73 μg/ml in rabbit blood
[14] = hirudin 2.20 μg/ml in rabbit blood
[15] = hirudin 6.60 μg/ml in rabbit blood
[16] = Hirudin 0.50 mg/kg i.v., 0 min (before administration)
[17] = Hirudin 0.50 mg/kg i.v., 10 min
[18] = Hirudin 0.50 mg/kg i.v., 30 min
[19] = Hirudin 0.50 mg/kg i.v., 60 min
[20] = Hirudin 0.50 mg/kg i.v., 120 min
[21] = Hirudin 0.50 mg/kg i.v., 240 min

Molecule: Bivalrudin: lyophilized powder for injection, manufactured by Chengdu Jiexun Biotechnical Co., Ltd. [reference compound]
- APTT (blood coagulation system [1]; [4]): 35.12 ± 8.04
- PT (blood coagulation system [1]; [4]): 7.83 ± 0.39
- TT (blood coagulation system [1]; [4]): 43.22 ± 8.13
- APTT (blood coagulation system [1]; [5]): 40.75 ± 8.71
- PT (blood coagulation system [1]; [5]): 8.75 ± 0.52
- TT (blood coagulation system [1]; [5]): 53.67 ± 9.03
- APTT (blood coagulation system [1]; [6]): 55.00 ± 12.4
- PT (blood coagulation system [1]; [6]): 11.08 ± 1.20
- TT (blood coagulation system [1]; [6]): 85.38 ± 23.07
- APTT (blood coagulation system [2]; [7]): 40.7 ± 5.77
- PT (blood coagulation system [2]; [7]): 6.87 ± 0.21
- TT (blood coagulation system [2]; [7]): 15.28 ± 1.60
- APTT (blood coagulation system [2]; [8]): 45.75 ± 7.20
- PT (blood coagulation system [2]; [8]): 8.27 ± 0.67
- TT (blood coagulation system [2]; [8]): 71.18 ± 23.37
- APTT (blood coagulation system [2]; [9]): 39.33 ± 6.62
- PT (blood coagulation system [2]; [9]): 7.40 ± 0.27
- TT (blood coagulation system [2]; [9]): 36.12 ± 14.00
- APTT (blood coagulation system [2]; [10]): 38.03 ± 5.55
- PT (blood coagulation system [2]; [10]): 7.10 ± 0.15
- TT (blood coagulation system [2]; [10]): 26.68 ± 7.30
- APTT (blood coagulation system [2]; [11]): 32.68 ± 4.77
- PT (blood coagulation system [2]; [11]): 7.02 ± 0.12
- TT (blood coagulation system [2]; [11]): 15.40 ± 2.16
- APTT (blood coagulation system [2]; [12]): 34.57 ± 5.56
- PT (blood coagulation system [2]; [12]): 6.90 ± 0.18
- TT (blood coagulation system [2]; [12]): 15.50 ± 2.36

Molecule: Hirogen: artificial dodecapeptide based on the C-terminal 53rd-64th amino acids of hirudin (NGDFEEIPEEYL) (not fully specified) [reference compound]
- anti-leukocyte adhesion activity (leukocyte adhesion): none

Molecule: heparin sodium [reference compound]
- Test results (blood coagulation) (rabbit whole blood): not coagulated and Non-

Molecule: hirudin [reference compound]
- APTT (blood coagulation system [1]; [13]): 37.47 ± 6.15
- PT (blood coagulation system [1]; [13]): 7.33 ± 0.33
- TT (blood coagulation system [1]; [13]): 50.40 ± 8.19
- APTT (blood coagulation system [1]; [14]): 52.85 ± 15.88
- PT (blood coagulation system [1]; [14]): 7.87 ± 0.37
- TT (blood coagulation system [1]; [14]): 102.77 ± 21.90
- APTT (blood coagulation system [1]; [15]): 58.43 ± 14.36
- PT (blood coagulation system [1]; [15]): 9.37 ± 1.30
- TT (blood coagulation system [1]; [15]): 116.40 ± 8.82
- APTT (blood coagulation system [2]; [16]): 38.02 ± 6.54
- PT (blood coagulation system [2]; [16]): 6.80 ± 0.28
- TT (blood coagulation system [2]; [16]): 16.40 ± 1.73
- APTT (blood coagulation system [2]; [17]): 39.97 ± 5.69
- PT (blood coagulation system [2]; [17]): 7.27 ± 0.22
- TT (blood coagulation system [2]; [17]): 112.70
- APTT (blood coagulation system [2]; [18]): 37.72 ± 5.55
- PT (blood coagulation system [2]; [18]): 7.01 ± 0.31
- TT (blood coagulation system [2]; [18]): 84.93 ± 49.24
- APTT (blood coagulation system [2]; [19]): 35.02 ± 7.59
- PT (blood coagulation system [2]; [19]): 6.95 ± 0.34
- TT (blood coagulation system [2]; [19]): 58.17 ± 33.19
- APTT (blood coagulation system [2]; [20]): 32.05 ± 5.69
- PT (blood coagulation system [2]; [20]): 6.97 ± 0.27
- TT (blood coagulation system [2]; [20]): 30.42 ± 17.09
- APTT (blood coagulation system [2]; [21]): 32.07 ± 5.97
- PT (blood coagulation system [2]; [21]): 7.08 ± 0.26
- TT (blood coagulation system [2]; [21]): 16.30 ± 2.32
- aggregation ratio, Before administration ([3]; hirudin 0.1 mg/kg group): 58.44 ± 4.42%
- aggregation ratio, 15 min after administration ([3]; hirudin 0.1 mg/kg i.v.): 4.34 ± 6.88%
- aggregation ratio, difference ([3]; hirudin 0.1 mg/kg i.v., before vs 15 min after): 54.09 ± 8.69 %

B1: TNHH-G15/n3: recombinant TNHH with linker 1 (Gly)15 and linker 2 (GSGG)3: NIF-(Gly)15-FPRP-(GSGG)3-hirugen (protein)
chain: MNEHNLRCPQNGTEMPGFNDSIRLQFLAMHNGYRSKLALGHISITEESESDDDDDFGFLPDFAPRASKMRYLEYDCEAEKSAYMSARNCSDSSSPPEGYDENKYIFENSNNISEAALKAMISWAKEAFNLNKTKEGEGVLYRSNHDISNFANLAWDAREKFGCAVVNCPLGEIDDETNHDGETYATTIHVVCHYPKINKTEGQPIYKVGTPCDDCSEYTKKADNTTSADPVCIPDDGVCFIGSKADYDSKEFYRFRELGGGGGGGGGGGGGGGFPRPGSGGGSGGGSGGNGDFEEIPEEYL
- anti-leukocyte adhesion activity (leukocyte adhesion): 740 Unit/mg
